Several values for one entry are separate records, joined by “and”; a condition that tells them apart may be missing. Equal values may be shown once. Where a name gives a salt, the structure may show the parent alone. Read-outs that look alike come from different tables or passages of the source.
How the values were obtained:
[1] = system: Staphylococcus aureus (stau); assay: Example 3: colony color on chromogenic TSA II with 5% sheep blood (chromogen in medium); format: cell-based; settings: for Colony Color (Summary): chromogenic TSA II with 5% Sheep Blood, 0.1 g/l, 5 strains tested
[2] = system: E. coli (non-O157) (esco); format: cell-based; settings: for Colony Color (Summary): chromogenic TSA II with 5% Sheep Blood, 0.1 g/l, 3 strains tested
[3] = system: Citrobacter freundii (cifr); assay: Example 3: colony color on chromogenic TSA II with 5% sheep blood (chromogen in medium); format: cell-based; settings: for Colony Color (Summary): chromogenic TSA II with 5% Sheep Blood, 0.1 g/l, 2 strains tested; for Colony Color: CO2
[4] = system: Group D Strep / Enterococcus; assay: as above; settings: 7 of 7 strains
[5] = system: S. mitis 6249; assay: Example 2: effect of incubation conditions on colony color formation; format: cell-based, Streptococcus mitis; settings: TSA II 5% Sheep Blood, 0.004 g/plate; 24 h, CO2
[6] = system: Neisseria meningitidis 13090; assay: Example 1: growth and colony color on plates surface-spread with chromogen; format: cell-based
[7] = system: S. pneumoniae 6303; assay: Example 2: effect of incubation conditions on colony color formation; format: cell-based, Streptococcus pneumoniae; settings: TSA II 5% Sheep Blood, 0.004 g/plate; 24 h, CO2
[8] = system: C. perfringens 13124; format: cell-based, Clostridium perfringens; settings: TSA II 5% Sheep Blood, 0.004 g/plate; 5 d, ANA
[9] = system: Escherichia coli 25922; assay: Example 1: growth and colony color on plates surface-spread with chromogen; format: cell-based; settings: E. coli 25922; for Substrates Producing Color: Summary of Table I
[10] = system: 55 strains; assay: Example 3: color, hemolytic activity and growth over all 55 strains; format: cell-based; settings: Gram-positives
Excerpt: Steers, E. et al., Antibiot.

[11] = system: E. coli 25922; assay: Example 2: effect of incubation conditions on colony color formation; format: cell-based, Escherichia coli
[12] = system: N. sicca 29193; assay: as above; format: cell-based
[13] = system: S. aureus 25923; assay: as above; format: cell-based, Staphylococcus aureus
[14] = system: S. epidermidis 12228; assay: Example 1: growth and colony color on plates surface-spread with chromogen; format: cell-based; settings: for Color: S. epi 12228
[15] = system: N. meningitidis 13090; format: cell-based; settings: Chocolate II Agar, 0.004 g/plate; 24 h, CO2
[16] = system: H. influenzae 35540; assay: Example 2: effect of incubation conditions on colony color formation; format: cell-based
[17] = system: Staphylococcus aureus 25923; assay: Example 1: growth and colony color on plates surface-spread with chromogen; format: cell-based; settings: S. aureus 25923
[18] = Solubility of chromogen in DMSO; format: physicochemical; settings: 0.08g in 1.0 ml DMSO
Procedure: In this series of experiments, 0.08g of each chromogen indicated below was added to 1.0 ml DMSO and thoroughly mixed.

[19] = system: S. epidermidis 12228; assay: Example 2: effect of incubation conditions on colony color formation; format: cell-based, Staphylococcus epidermidis
[20] = system: H. influenzae 10211; assay: as above; format: cell-based
[21] = system: N. sicca 29193; assay: Example 1: growth and colony color on plates surface-spread with chromogen; format: cell-based
[22] = system: Haemophilus influenzae 10211; assay: as above; format: cell-based; settings: Substrate on Choclate II Agar, H. influ. 10211
[23] = system: Haemophilus influenzae 35540; assay: as above; format: cell-based; settings: for Color: Substrate on Choclate II Agar, H. influ. 35540
[24] = system: bacterial test strains of Example 1; assay: Example 1: inhibitory effect over all test strains; format: cell-based; settings: Example 1, all test strains
[25] = Substrate on Choclate II Agar, N. mening. 13090

CC(=O)N[C@H]1[C@H](Oc2c[nH]c3ccc(Br)c(Cl)c23)O[C@H](CO)[C@H](O)[C@@H]1O [X-Acglmn, 5-Br-4-Cl-3-indolyl-N-Acetyl-β-D-galactosaminide]
Colony Color (Summary) [1]: 0
Colony Color ([1]; stau 1006, CO2, 21 h): 0
Colony Color ([1]; stau 1007, CO2, 21 h): 0
Colony Color ([1]; stau 1008, CO2, 21 h): 0
Colony Color ([1]; stau 1009, CO2, 21 h): 0
Colony Color ([1]; stau 25923, CO2, 18 h): 0
Colony Color ([1]; stau 25923, CO2, 24 h): 0
Colony Color ([1]; stau 25923, air, 24 h): 0
Colony Color on Various Chromogenic TSA II with 5% Sheep Blood ([1]; stau t006, CO2, 18 h): 0
Colony Color on Various Chromogenic TSA II with 5% Sheep Blood ([1]; stau t007, CO2, 18 h): 0
Colony Color on Various Chromogenic TSA II with 5% Sheep Blood ([1]; stau t008, CO2, 18 h): 0
Colony Color on Various Chromogenic TSA II with 5% Sheep Blood ([1]; stau t009, CO2, 18 h): 0
Colony Color (Summary) [2]: 0
Colony Color ([2]; esco 11775, CO2, 18 h): 0
Colony Color ([2]; esco 11775, CO2, 21 h): 0
Colony Color ([2]; esco 25922, CO2, 24 h): 0
Colony Color ([2]; esco 25922, air, 24 h): 0
Colony Color ([2]; esco 33605, CO2, 18 h): 0
Colony Color ([2]; esco 33605, CO2, 21 h): 0
Colony Color (Summary) [3]: 0
Colony Color ([3]; cifr 8454, 18 h): 0
Colony Color ([3]; cifr 8454, 21 h): 0
Colony Color ([3]; cifr 33128, 18 h): 0
Colony Color ([3]; cifr 33128, 21 h): 0
Colony Color [4]: dark blue
Colony Color [5]: blue (vl)
Growth [6, 25]: <
Substrates Producing Growth Inhibition ([6]; Summary of Table I, N. meningitidis 13090): Slight inhib w/ X-
Colony Color [7]: blue (l)
Colony Color [8]: blue (l)

OC[C@H]1O[C@@H](Oc2c[nH]c3ccc(Br)c(Cl)c23)[C@H](O)[C@@H](O)[C@@H]1O [X-Glucoside, 5-Br-4-Cl-3-indolyl-β-D-glucopyranoside]
Colony Color (Summary) [1]: 0
Colony Color ([1]; stau 1006, CO2, 21 h): 0
Colony Color ([1]; stau 1007, CO2, 21 h): 0
Colony Color ([1]; stau 1008, CO2, 21 h): 0
Colony Color ([1]; stau 1009, CO2, 21 h): 0
Colony Color ([1]; stau 25923, CO2, 18 h): 0
Colony Color ([1]; stau 25923, CO2, 24 h): 0
Colony Color ([1]; stau 25923, air, 24 h): 0
Colony Color on Various Chromogenic TSA II with 5% Sheep Blood ([1]; stau t006, CO2, 18 h): 0
Colony Color on Various Chromogenic TSA II with 5% Sheep Blood ([1]; stau t007, CO2, 18 h): 0
Colony Color on Various Chromogenic TSA II with 5% Sheep Blood ([1]; stau t008, CO2, 18 h): 0
Colony Color on Various Chromogenic TSA II with 5% Sheep Blood ([1]; stau t009, CO2, 18 h): 0
Colony Color (Summary) [2]: 0
Colony Color ([2]; esco 11775, CO2, 18 h): 0
Colony Color ([2]; esco 11775, CO2, 21 h): 0
Colony Color ([2]; esco 25922, CO2, 24 h): 0
Colony Color ([2]; esco 25922, air, 24 h): 0
Colony Color ([2]; esco 33605, CO2, 18 h): 0
Colony Color ([2]; esco 33605, CO2, 21 h): 0
Growth ([9]; TSA II 5SB): 4
Colony Color (Summary) [3]: 0
Colony Color ([3]; cifr 8454, 18 h): 0
Colony Color ([3]; cifr 8454, 21 h): 0
Colony Color ([3]; cifr 33128, 18 h): 0
Colony Color ([3]; cifr 33128, 21 h): 0
Colony Color [4]: blue

OC[C@H]1O[C@@H](Oc2c[nH]c3ccc(Br)c(Cl)c23)[C@H](O)[C@@H](O)[C@H]1O [X-Gal, 5-Br-4-Cl-3-indolyl-β-D-galactopyranoside]
Colony Color (Summary) [1]: 0
Colony Color ([1]; stau 1006, CO2, 21 h): 0
Colony Color ([1]; stau 1007, CO2, 21 h): 0
Colony Color ([1]; stau 1008, CO2, 21 h): 0
Colony Color ([1]; stau 1009, CO2, 21 h): 0
Colony Color ([1]; stau 25923, CO2, 24 h): 0
Colony Color ([1]; stau 25923, air, 24 h): 0
Usefulness for Gram-positives [10]: not particularly useful
Colony Color (Summary) [2]: +
Colony Color ([2]; esco 33605, CO2, 21 h): gb
Color ([9]; Choc II): blue
Substrates Producing Color [9]: X-Gal
Color ([9]; TSA II 5SB): blue
Color ([9]; TSA Plain): blue
Colony Color (Summary) [3]: +
Colony Color ([3]; cifr 8454, 21 h): gb
Colony Color ([3]; cifr 33128, 21 h): gb
Colony Color ([11]; Chocolate II Agar, 0.004 g/plate, 24 h, air): blue (d)
Colony Color ([11]; TSA II 5% Sheep Blood, 0.004 g/plate, 24 h, air): blue (d)
Colony Color ([11]; TSA II 5% Sheep Blood, 0.004 g/plate, 5 d, ANA): blue (d)
Colony Color ([11]; TSA II 5% Sheep Blood, 0.004 g/plate, 5 d, MA): blue (d)
Colony Color [7]: blue (l)
Colony Color [8]: blue (m)

O=P(O)(O)Oc1c[nH]c2cc(Cl)c(Br)cc12 [Mag-Phos, 5-Br-6-Cl-3-indolyl-phosphate, p-touidine salt]
Colony Color [12]: purple (m)
Colony Color [13]: purple (m)
Colony Color ([1]; stau 1006, CO2, 21 h): 0
Colony Color ([1]; stau 1007, CO2, 21 h): 0
Colony Color ([1]; stau 1008, CO2, 21 h): vlp
Colony Color ([1]; stau 1009, CO2, 21 h): vlp
Colony Color ([1]; stau 25923, CO2, 24 h): lp
Colony Color ([1]; stau 25923, air, 24 h): lp
Color ([14]; Choc II): purple
Substrates Producing Color ([14]; Summary of Table I, S. epidermidis 12228): Mag-phos
Color ([14]; TSA II 5SB): purple
Color ([14]; TSA Plain): purple
Colony Color [15]: NC (col
Colony Color [2]: lp and lgb and 0
Color ([9]; Choc II): purple
Substrates Producing Color [9]: Mag-phos
Color ([9]; TSA II 5SB): purple
Color ([9]; TSA Plain): purple
Colony Color [16]: purple (m)
Colony Color (Summary) [3]: 0
Colony Color ([3]; cifr 8454, 21 h): 0
Colony Color ([3]; cifr 33128, 21 h): 0
Colony Color [11]: purple (m)
Color ([17]; Choc II): purple
Substrates Producing Color ([17]; Summary of Table I): Mag-phos
Color ([17]; TSA II 5SB): purple
Color ([17]; TSA Plain): purple
Growth [6]: = NC
Color [6, 25]: colorless
Solubility / appearance of solution in DMSO [18]: clear and light orange in color
Colony Color [19]: purple (m)
Colony Color [20]: purple (m)
Color ([21]; Substrate on Choclate II Agar, N. sicca. 29193): purple
Substrates Producing Color ([21]; Summary of Table I, N. sicca 29193): Mag-phos
Color [22]: purple
Color ([22]; listed as Mag-phos): dark purple
Color [23]: purple
Color ([23]; listed as Mag-phos): dark purple
Substrates Producing Color ([23]; Summary of Table I, H. influenzae 35540, 10211): Mag-phos
Inhibitory effect [24]: most inhibitory effect
